Results from PubChem BioAssay (NCI).
Several values for one entry are separate records, joined by “and”; a condition that tells them apart may be missing. Equal values may be shown once.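 Results reflect a 48-hour exposure of cells in 96-well plates to compound at five concentrations. At the GI50, growth is halved. TGI is the concentration that stops growth completely.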

Assays:
Assay in all cases: NCI anticancer screen, dose series, 48 h
786-0 renal = tested on: 786-0 renal
A498 renal = tested on: A498 renal
A549 NSCLC = tested on: A549 NSCLC
ACHN renal = tested on: ACHN renal
BT-549 breast = tested on: BT-549 breast
CAKI-1 renal = tested on: CAKI-1 renal
CCRF-CEM leukemia = tested on: CCRF-CEM leukemia
COLO 205 colon = tested on: COLO 205 colon
DU-145 prostate = tested on: DU-145 prostate
EKVX NSCLC = tested on: EKVX NSCLC
HCC-2998 colon = tested on: HCC-2998 colon
HCT-116 colon = tested on: HCT-116 colon
HCT-15 colon = tested on: HCT-15 colon
HL-60(TB) leukemia = tested on: HL-60(TB) leukemia
HOP-62 NSCLC = tested on: HOP-62 NSCLC
HOP-92 NSCLC = tested on: HOP-92 NSCLC
HS 578T breast = tested on: HS 578T breast
HT29 colon = tested on: HT29 colon
IGROV1 ovarian = tested on: IGROV1 ovarian
K-562 leukemia = tested on: K-562 leukemia
KM12 colon = tested on: KM12 colon
LOX IMVI melanoma = tested on: LOX IMVI melanoma
M14 melanoma = tested on: M14 melanoma
MALME-3M melanoma = tested on: MALME-3M melanoma
MCF7 breast = tested on: MCF7 breast
MDA-MB-231 breast = tested on: MDA-MB-231 breast
MDA-MB-435 = tested on: MDA-MB-435
MDA-N = tested on: MDA-N
MOLT-4 leukemia = tested on: MOLT-4 leukemia
NCI-H226 lung = tested on: NCI-H226 lung
NCI-H23 lung = tested on: NCI-H23 lung
NCI-H460 lung = tested on: NCI-H460 lung
NCI-H522 lung = tested on: NCI-H522 lung
NCI/ADR-RES ovarian = tested on: NCI/ADR-RES ovarian
OVCAR-3 ovarian = tested on: OVCAR-3 ovarian
OVCAR-4 ovarian = tested on: OVCAR-4 ovarian
OVCAR-5 ovarian = tested on: OVCAR-5 ovarian
OVCAR-8 ovarian = tested on: OVCAR-8 ovarian
PC-3 prostate = tested on: PC-3 prostate
RPMI-8226 leukemia = tested on: RPMI-8226 leukemia
RXF 393 renal = tested on: RXF 393 renal
SF-268 CNS = tested on: SF-268 CNS
SF-295 CNS = tested on: SF-295 CNS
SF-539 CNS = tested on: SF-539 CNS
SK-MEL-2 melanoma = tested on: SK-MEL-2 melanoma
SK-MEL-28 melanoma = tested on: SK-MEL-28 melanoma
SK-MEL-5 melanoma = tested on: SK-MEL-5 melanoma
SK-OV-3 ovarian = tested on: SK-OV-3 ovarian
SN12C renal = tested on: SN12C renal
SNB-19 CNS = tested on: SNB-19 CNS
SNB-75 CNS = tested on: SNB-75 CNS
SR leukemia = tested on: SR leukemia
SW-620 colon = tested on: SW-620 colon
T-47D breast = tested on: T-47D breast
TK-10 renal = tested on: TK-10 renal
U251 CNS = tested on: U251 CNS
UACC-257 melanoma = tested on: UACC-257 melanoma
UACC-62 melanoma = tested on: UACC-62 melanoma
UO-31 renal = tested on: UO-31 renal

SMILES: CC(=O)OCC1OC(n2c(S)c(C#N)c(-c3ccccc3)c(C#N)c2=O)C(OC(C)=O)C(OC(C)=O)C1OC(C)=O (centres undefined)
- TGI (786-0 renal): > 100 µM and 83.4 µM
- GI50 (A498 renal): > 69 µM and 30.3 µM
- TGI (A498 renal): > 100 µM and 74 µM
- TGI (A549 NSCLC): > 100 µM
- TGI (ACHN renal): > 100 µM
- GI50 (BT-549 breast): > 66.8 µM and 21.1 µM
- TGI (BT-549 breast): > 100 µM and 59.1 µM
- TGI (CAKI-1 renal): > 100 µM
- GI50 (CCRF-CEM leukemia): > 100 µM and 43.1 µM
- TGI (CCRF-CEM leukemia): > 100 µM and 96.7 µM
- GI50 (COLO 205 colon): > 100 µM and 26.1 µM
- TGI (COLO 205 colon): > 100 µM and 65.3 µM
- TGI (DU-145 prostate): > 100 µM
- GI50 (EKVX NSCLC): > 100 µM and 25.1 µM
- TGI (EKVX NSCLC): > 100 µM and 76.1 µM
- GI50 (HCC-2998 colon): > 100 µM and 18 µM
- TGI (HCC-2998 colon): > 100 µM and 32.9 µM
- GI50 (HCT-116 colon): > 100 µM and 39.3 µM
- TGI (HCT-116 colon): > 100 µM
- TGI (HCT-15 colon): > 100 µM
- GI50 (HL-60(TB) leukemia): > 100 µM and 17.4 µM
- TGI (HL-60(TB) leukemia): > 100 µM and 35.5 µM
- TGI (HOP-62 NSCLC): 52.9 µM and 75.7 µM
- TGI (HOP-92 NSCLC): 59.9 µM and 99.2 µM
- TGI (HS 578T breast): > 100 µM
- GI50 (HT29 colon): > 100 µM and 24.3 µM
- TGI (HT29 colon): > 100 µM and 52.8 µM
- TGI (IGROV1 ovarian): > 100 µM
- TGI (K-562 leukemia): > 100 µM
- GI50 (KM12 colon): > 100 µM and 21.8 µM
- TGI (KM12 colon): > 100 µM and 52 µM
- GI50 (LOX IMVI melanoma): > 100 µM and 17.2 µM
- TGI (LOX IMVI melanoma): > 100 µM and 31 µM
- GI50 (M14 melanoma): > 100 µM and 36.5 µM
- TGI (M14 melanoma): > 100 µM
- GI50 (MALME-3M melanoma): > 100 µM and 32.2 µM
- TGI (MALME-3M melanoma): > 100 µM and 98.9 µM
- GI50 (MCF7 breast): > 100 µM and 33.7 µM
- TGI (MCF7 breast): > 100 µM and 97.6 µM
- GI50 (MDA-MB-231 breast): > 71.9 µM and 22.1 µM
- TGI (MDA-MB-231 breast): > 100 µM and 83.7 µM
- GI50 (MDA-MB-435): > 100 µM and 17.2 µM
- TGI (MDA-MB-435): > 100 µM and 34.6 µM
- GI50 (MDA-N): > 100 µM and 28.3 µM
- TGI (MDA-N): > 100 µM and 86.5 µM
- GI50 (MOLT-4 leukemia): > 100 µM and 23.6 µM
- TGI (MOLT-4 leukemia): > 100 µM and 50.8 µM
- TGI (NCI-H226 lung): > 100 µM
- GI50 (NCI-H23 lung): > 100 µM and 45 µM
- TGI (NCI-H23 lung): > 100 µM
- TGI (NCI-H460 lung): > 100 µM
- GI50 (NCI-H522 lung): 54.8 µM and 27 µM
- TGI (NCI-H522 lung): > 100 µM and 51.3 µM
- TGI (NCI/ADR-RES ovarian): > 100 µM
- GI50 (OVCAR-3 ovarian): > 100 µM and 19.5 µM
- TGI (OVCAR-3 ovarian): > 100 µM and 36.9 µM
- GI50 (OVCAR-4 ovarian): > 100 µM and 30.6 µM
- TGI (OVCAR-4 ovarian): > 100 µM and 83.3 µM
- GI50 (OVCAR-5 ovarian): > 100 µM and 39.7 µM
- TGI (OVCAR-5 ovarian): > 100 µM
- GI50 (OVCAR-8 ovarian): > 100 µM and 16.7 µM
- TGI (OVCAR-8 ovarian): > 100 µM and 36.2 µM
- GI50 (PC-3 prostate): > 100 µM and 43.5 µM
- TGI (PC-3 prostate): > 100 µM
- GI50 (RPMI-8226 leukemia): > 100 µM and 35 µM
- TGI (RPMI-8226 leukemia): > 100 µM and 75 µM
- TGI (RXF 393 renal): 59.4 µM and 59.1 µM
- TGI (SF-268 CNS): > 100 µM and 61.7 µM
- GI50 (SF-295 CNS): 29.4 µM and > 100 µM
- TGI (SF-295 CNS): > 100 µM
- GI50 (SF-539 CNS): 51.6 µM and 25.7 µM
- TGI (SF-539 CNS): > 100 µM and 70.9 µM
- GI50 (SK-MEL-2 melanoma): > 61.6 µM and 13.6 µM
- TGI (SK-MEL-2 melanoma): > 100 µM and 31.8 µM
- GI50 (SK-MEL-28 melanoma): > 100 µM and 25.7 µM
- TGI (SK-MEL-28 melanoma): > 100 µM and 62.8 µM
- GI50 (SK-MEL-5 melanoma): > 100 µM and 20.2 µM
- TGI (SK-MEL-5 melanoma): > 100 µM and 41.6 µM
- GI50 (SK-OV-3 ovarian): 99.5 µM and 32.1 µM
- TGI (SK-OV-3 ovarian): > 100 µM and 96.6 µM
- GI50 (SN12C renal): > 100 µM and 25.2 µM
- TGI (SN12C renal): > 100 µM and 81.7 µM
- TGI (SNB-19 CNS): > 100 µM
- TGI (SNB-75 CNS): 56.5 µM and 72.4 µM
- GI50 (SR leukemia): > 100 µM and 32.1 µM
- TGI (SR leukemia): > 100 µM and 57.7 µM
- GI50 (SW-620 colon): > 100 µM and 49.9 µM
- TGI (SW-620 colon): > 100 µM
- GI50 (T-47D breast): > 100 µM and 18.6 µM
- TGI (T-47D breast): > 100 µM and 54.4 µM
- GI50 (TK-10 renal): 90.7 µM and 24.9 µM
- TGI (TK-10 renal): > 100 µM and 86.5 µM
- TGI (U251 CNS): > 100 µM
- GI50 (UACC-257 melanoma): > 100 µM and 36.2 µM
- TGI (UACC-257 melanoma): > 100 µM and 81.4 µM
- GI50 (UACC-62 melanoma): 82.3 µM and 23.2 µM
- TGI (UACC-62 melanoma): > 100 µM and 59.5 µM
- GI50 (UO-31 renal): > 68.1 µM and 29.1 µM
- TGI (UO-31 renal): > 100 µM and 87.3 µM
